Experimental data published in PMC8200971, “Design, Synthesis, Biological Evaluation and Silico Prediction of Novel Sinomenine Derivatives” (Molecules, 2021).
Where two headings read alike, the source gives them in different places.

Assays:
[1] = system: A549 (human lung adenocarcinoma cell lines); test: CCK8 cytotoxicity assay; assay type: cell-based; conditions: for IC50: read-out: IC50 A549; for inhibition at 2.5 µM / inhibition at 25 µM: read-out: growth inhibition ratio (mean ± SD)
Experimental: (§1) Cytotoxicity screens were performed to assess the in vitro anticancer activity of the synthesized sinomenine derivatives 6a–6l on the various cancer cell lines MCF-7, Hela, SW480, and A549, as well as on Hek293 as a normal cell line, at doses of 2.5 and 25 μM. The obtained inhibition ratios data were used to construct a heat map (Figure 3, Tables S1 and S2) in order to select compounds that exert cancer cell line-specific cytotoxicity. Then, the IC50 values of the promising compound were determined. Cisplatin was used as a reference standard. The antiproliferative activity was based on the evaluation of the percent viability using the CCK8 assay, which is a rapid and sensitive method for determining the number of viable cells in culture. In the presence of electronic coupling reagents, WST-8 can be reduced by a dehydrogenase in the mitochondria to produce a highly water-soluble orange-yellow formazan product. Its color is proportional to the proliferation of the number of viable cells and is related to cytotoxicity. Using a microplate reader to measure the OD value can indirectly reflect the number of living cells at 450 nm wavelength.
(§2) To understand structure–function relationships, these selected compounds were subjected to subsequent analyses. All six compounds (6a and 6c–6g) were further examined to determine their IC50 concentrations on the previously mentioned cell lines, and their efficacy was compared to the reference drug cisplatin. For this, six compounds and cisplatin were evaluated on Hela, MCF-7, SW480, and A549, and on noncancerous Hek293 cell lines at various concentrations for 60 h. IC50 values were calculated (Table 2).
(§3) The MCF-7 (human breast cancer cell lines), Hela (human cervical cancer cell lines), SW480 (human colon adenocarcinoma cell lines), A549 (human lung adenocarcinoma cell lines) and nontoxic normal cells Hek293 (human embryonic kidney cell lines) cells were used to measure the cytotoxicity of the 6a–6l. They were obtained from the Beijing Normal University (Beijing, China). The test cell lines were cultured in DMEM, IMDM, F12 and DMEM nutrient medium containing 10% heat-inactivated fetal bovine serum, […] and 100 units/mL penicillin in a humified, 5% (v/v) CO2 atmosphere at 37 °C.
(§4) Cell viability was estimated using the CCK8 assay. Tumor cells ([…]) viz. MCF-7, Hela, SW480, A549 and nontoxic normal cells Hek293 were seeded in medium containing Corning® 96-well tissue culture plates at confluences of […], respectively, in Incucyte ZOOM. Fresh medium (100 μL) containing different concentrations of the test sample was added after 12 h of seeding. The microtiter plates were incubated at 37 °C in a humidified incubator with 5% CO2 for 60 h. Triplicates from each concentration were used. Negative control cells were incubated without sample and cisplatin as a positive control. At the end of treatment, the numbers of viable cells were determined by the CCK8 test. In brief, the media was removed from the 96 well plates and replaced with 100 μL of fresh culture medium with 10% CCK8 solution added to each well including the untreated controls. The 96 well plates were then incubated at 37 °C and 5% CO2 for 1–4 h. Then, the absorbance was measured at 450 nm using a BMG LABTECH®-POLAR star Omega microplate reader (Ortenberg, Germany) to determine the number of viable cells, and the percentage of viability was calculated as ((ODt- ODb/ODc- ODb)) × 100%, where ODt is the mean optical density of wells treated with the tested sample, ODc is the mean optical density of wells treated with DMSO and ODb is the mean optical density of PBS wells without cells. The relation between surviving cells and drug concentrations were plotted to get the survival curve of each tumor cell line after treatment with the specified compound. […]

[2] = system: Hela (human cervical cancer cell lines); test: CCK8 cytotoxicity assay; assay type: cell-based; conditions: for IC50: read-out: IC50 Hela; for inhibition at 2.5 µM / inhibition at 25 µM: read-out: growth inhibition ratio (mean ± SD)
Experimental: as §1, §2, §3, §4

[3] = system: MCF-7 (human breast cancer cell lines); test: CCK8 cytotoxicity assay; assay type: cell-based; conditions: for IC50: read-out: IC50 MCF-7; for inhibition at 2.5 µM / inhibition at 25 µM: read-out: growth inhibition ratio (mean ± SD)
Experimental: as §1, §2, §3, §4

[4] = system: SW480 (human colon adenocarcinoma cell lines); test: CCK8 cytotoxicity assay; assay type: cell-based; conditions: for IC50: read-out: IC50 SW480; for inhibition at 2.5 µM / inhibition at 25 µM: read-out: growth inhibition ratio (mean ± SD)
Experimental: as §1, §2, §3, §4

[5] = system: Hek293 (human embryonic kidney cell lines); test: CCK8 cytotoxicity assay, normal cells; assay type: cell-based; conditions: for IC50: read-out: IC50 Hek293; for inhibition at 2.5 µM / inhibition at 25 µM: read-out: growth inhibition ratio (mean ± SD)
Experimental: as §1, §2, §3, §4

[6] = CCK8, 60 h, mean ± SD of three independent experiments

Compound: COC1=C[C@@H]2[C@@H]3Cc4c(CN5CCCC5)cc(OC)c(OC(=O)Cc5ccccc5Cl)c4[C@]2(CCN3C)CC1=O [6c, (4bR,8aS,9S)-3,7-dimethoxy-11-methyl-6-oxo-1-(pyrrolidin-1-ylmethyl)-6,8a,9,10-tetrahydro-5H-9,4b-(epiminoethano)phenanthren-4-yl 2-(2-chlorophenyl)acetate]
- IC50 ([1]; Homo sapiens, A549, 60 h): 18.7 ± 0.7 µM
- inhibition at 2.5 µM ([1]; Homo sapiens, A549, 60 h): 16.3 ± 0.63%
- inhibition at 25 µM ([1]; Homo sapiens, A549, 60 h): 49.4 ± 0.59%
- IC50 ([2]; Homo sapiens, HeLa, 60 h): > 25 µM
- inhibition at 2.5 µM ([2]; Homo sapiens, HeLa, 60 h): 3.05 ± 3.91%
- inhibition at 25 µM ([2]; Homo sapiens, HeLa, 60 h): 53.5 ± 2.45%
- IC50 ([3]; Homo sapiens, MCF7, 60 h): > 25 µM
- inhibition at 2.5 µM ([3]; Homo sapiens, MCF7, 60 h): 0%
- inhibition at 25 µM ([3]; Homo sapiens, MCF7, 60 h): 42 ± 3.02%
- IC50 ([4]; Homo sapiens, SW480, 60 h): > 25 µM
- inhibition at 2.5 µM ([4]; Homo sapiens, SW480, 60 h): 28.3 ± 6.91%
- inhibition at 25 µM ([4]; Homo sapiens, SW480, 60 h): 58.4 ± 7.58%
- IC50 ([5]; Homo sapiens, HEK293, 60 h): 6.52 ± 0.19 µM
- inhibition at 2.5 µM ([5]; Homo sapiens, HEK293, 60 h): 13.8 ± 2.27%
- inhibition at 25 µM ([5]; Homo sapiens, HEK293, 60 h): 54.6 ± 2.29%
- melting point: 79 to 83 °C

Compound: COC1=C[C@@H]2[C@@H]3Cc4c(CN5CCCC5)cc(OC)c(OC(=O)Cc5cccc(Cl)c5)c4[C@]2(CCN3C)CC1=O [6e, (4bR,8aS,9S)-3,7-dimethoxy-11-methyl-6-oxo-1-(pyrrolidin-1-ylmethyl)-6,8a,9,10-tetrahydro-5H-9,4b-(epiminoethano)phenanthren-4-yl 2-(3-chlorophenyl)acetate]
- IC50 ([1]; Homo sapiens, A549, 60 h): 17.9 ± 0.74 µM
- inhibition at 2.5 µM ([1]; Homo sapiens, A549, 60 h): 25.6 ± 1%
- inhibition at 25 µM ([1]; Homo sapiens, A549, 60 h): 61.06 ± 0.13%
- IC50 ([2]; Homo sapiens, HeLa, 60 h): 13.3 ± 0.95 µM
- inhibition at 2.5 µM ([2]; Homo sapiens, HeLa, 60 h): 3.21 ± 2.37%
- inhibition at 25 µM ([2]; Homo sapiens, HeLa, 60 h): 80.9 ± 2.05%
- IC50 ([3]; Homo sapiens, MCF7, 60 h): 14.9 ± 0.15 µM
- inhibition at 2.5 µM ([3]; Homo sapiens, MCF7, 60 h): 6.92 ± 2.62%
- inhibition at 25 µM ([3]; Homo sapiens, MCF7, 60 h): 77.85 ± 0.45%
- IC50 ([4]; Homo sapiens, SW480, 60 h): > 25 µM
- inhibition at 2.5 µM ([4]; Homo sapiens, SW480, 60 h): 29.4 ± 7.71%
- inhibition at 25 µM ([4]; Homo sapiens, SW480, 60 h): 61 ± 7.14%
- IC50 ([5]; Homo sapiens, HEK293, 60 h): 16.6 ± 0.64 µM
- inhibition at 2.5 µM ([5]; Homo sapiens, HEK293, 60 h): 14.4 ± 2.54%
- inhibition at 25 µM ([5]; Homo sapiens, HEK293, 60 h): 63.3 ± 11.4%
- melting point: 68 to 72 °C

Compound: COC1=C[C@@H]2[C@@H]3Cc4c(CN5CCCCC5)cc(OC)c(OC(=O)CCc5ccccc5)c4[C@]2(CCN3C)CC1=O [5e, (4bR,8aS,9S)-3,7-dimethoxy-11-methyl-6-oxo-1-(piperidin-1-ylmethyl)-6,8a,9,10-tetrahydro-5H-9,4b-(epiminoethano)phenanthren-4-yl 3-phenylpropanoate]
- melting point: 181 to 185 °C

Compound: COC1=C[C@@H]2[C@@H]3Cc4c(CN5CCCCC5)cc(OC)c(OC(=O)Cc5ccccc5)c4[C@]2(CCN3C)CC1=O [5b, (4bR,8aS,9S)-3,7-dimethoxy-11-methyl-6-oxo-1-(piperidin-1-ylmethyl)-6,8a,9,10-tetrahydro-5H-9,4b-(epiminoethano)phenanthren-4-yl 2-phenylacetate]
- melting point: 192 to 194 °C

Compound: COC1=C[C@@H]2[C@@H]3Cc4c(CN5CCCCC5)cc(OC)c(OC(=O)Cc5ccc(OC)cc5)c4[C@]2(CCN3C)CC1=O [5h, (4bR,8aS,9S)-3,7-dimethoxy-11-methyl-6-oxo-1-(piperidin-1-ylmethyl)-6,8a,9,10-tetrahydro-5H-9,4b-(epiminoethano)phenanthren-4-yl 2-(4-methoxyphenyl)acetate]
- melting point: 121 to 122 °C

Compound: COC1=C[C@@H]2[C@@H]3Cc4c(CN5CCCCC5)cc(OC)c(OC(=O)Cc5ccccc5Cl)c4[C@]2(CCN3C)CC1=O [5f, (4bR,8aS,9S)-3,7-dimethoxy-11-methyl-6-oxo-1-(piperidin-1-ylmethyl)-6,8a,9,10-tetrahydro-5H-9,4b-(epiminoethano)phenanthren-4-yl 2-(2-chlorophenyl)acetate]
- melting point: 188 to 190 °C

Compound: N.N.[Cl][Pt][Cl] [Cisplatin, reference compound]
- IC50 [1, 6]: 14.3 ± 0.7 µM
- IC50 [2, 6]: 4.57 ± 0.43 µM
- IC50 [3, 6]: 3.45 ± 0.82 µM
- IC50 [4, 6]: 1.98 ± 0.15 µM
- IC50 ([5]; normal cell line, CCK8, 60 h, mean ± SD of three independent experiments): 3.19 ± 0.6 µM
